Columns and labels:
foxtail, giant [1] = experiment: Test A preemergence; type: in vivo, Setaria faberii; conditions: Preemergence, 1000 g ai/ha; 0 to 100 scale, 0 no effect, 100 complete control
Summary of the method: (§1)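 Scoring was visual, on a scale where 100 means complete control and 0 means no effect, comparing treated with untreated plants around 10 days post-application. Compounds in surfactant-containing non-phytotoxic solvent were sprayed onto soil preemergence or onto one- to two-leaf seedlings (2–10 cm) postemergence.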

pigweed [2] = experiment: Test A postemergence; type: in vivo, Amaranthus retroflexus; conditions: Postemergence, 1000 g ai/ha; visual rating after approx. 10 days, 0 to 100 scale (0 no effect, 100 complete control)
Summary of the method: as §1

foxtail, giant [3] = experiment: Test A postemergence; type: in vivo, Setaria faberii; conditions: Postemergence, 1000 g ai/ha; visual rating after approx. 10 days, 0 to 100 scale (0 no effect, 100 complete control)
Summary of the method: as §1

ducksalad = experiment: Test C flooded paddy test; type: in vivo, Heteranthera limosa; conditions: Flood
Source text: (§2) At time of treatment, test pots were flooded to 3 cm above the soil surface, treated by application of test compounds directly to the paddy water, and then maintained at that water depth for the duration of the test. Treated plants and controls were maintained in a greenhouse for 13 to 15 days, after which time all species were compared to controls and visually evaluated. […] A dash (-) response means no test result.

barnyardgrass [4] = experiment: Test A preemergence; type: in vivo, Echinochloa crus-galli; conditions: Preemergence, 1000 g ai/ha; 0 to 100 scale, 0 no effect, 100 complete control
Summary of the method: as §1

crabgrass, large [5] = experiment: Test A postemergence; type: in vivo, Digitaria sanguinalis; conditions: Postemergence, 1000 g ai/ha; visual rating after approx. 10 days, 0 to 100 scale (0 no effect, 100 complete control)
Summary of the method: as §1

wheat [6] = experiment: Test A preemergence; type: in vivo, Triticum aestivum; conditions: Preemergence, 1000 g ai/ha; 0 to 100 scale, 0 no effect, 100 complete control
Summary of the method: as §1

corn [7] = experiment: Test A preemergence; type: in vivo, Zea mays; conditions: Preemergence, 1000 g ai/ha; 0 to 100 scale, 0 no effect, 100 complete control
Summary of the method: as §1

morningglory [8] = experiment: Test A postemergence; type: in vivo, Ipomoea spp.; conditions: Postemergence, 1000 g ai/ha; visual rating after approx. 10 days, 0 to 100 scale (0 no effect, 100 complete control)
Summary of the method: as §1

wheat [9] = experiment: Test A postemergence; type: in vivo, Triticum aestivum; conditions: Postemergence, 1000 g ai/ha; visual rating after approx. 10 days, 0 to 100 scale (0 no effect, 100 complete control)
Summary of the method: as §1

corn [10] = experiment: Test A postemergence; type: in vivo, Zea mays; conditions: Postemergence, 1000 g ai/ha; visual rating after approx. 10 days, 0 to 100 scale (0 no effect, 100 complete control)
Summary of the method: as §1

barnyardgrass [11] = experiment: Test A postemergence; type: in vivo, Echinochloa crus-galli; conditions: Postemergence, 1000 g ai/ha; visual rating after approx. 10 days, 0 to 100 scale (0 no effect, 100 complete control)
Summary of the method: as §1

crabgrass, large [12] = experiment: Test A preemergence; type: in vivo, Digitaria sanguinalis; conditions: Preemergence, 1000 g ai/ha; 0 to 100 scale, 0 no effect, 100 complete control
Summary of the method: as §1

barnyardgrass [13] = experiment: Test C flooded paddy test; type: in vivo, Echinochloa crus-galli; conditions: Flood
Source text: as §2

rice = experiment: Test C flooded paddy test; type: in vivo, Oryza sativa; conditions: Flood
Source text: as §2

velvetleaf [14] = experiment: Test A preemergence; type: in vivo, Abutilon theophrasti; conditions: Preemergence, 1000 g ai/ha; 0 to 100 scale, 0 no effect, 100 complete control
Summary of the method: as §1

pigweed [15] = experiment: Test A preemergence; type: in vivo, Amaranthus retroflexus; conditions: Preemergence, 1000 g ai/ha; 0 to 100 scale, 0 no effect, 100 complete control
Summary of the method: as §1

velvetleaf [16] = experiment: Test A postemergence; type: in vivo, Abutilon theophrasti; conditions: Postemergence, 1000 g ai/ha; visual rating after approx. 10 days, 0 to 100 scale (0 no effect, 100 complete control)
Summary of the method: as §1

sedge, umbrella = experiment: Test C flooded paddy test; type: in vivo, Cyperus difformis; conditions: Flood
Summary of the method: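 Ratings were visual and made relative to untreated controls after 13 to 15 greenhouse days.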

morningglory [17] = experiment: Test A preemergence; type: in vivo, Ipomoea spp.; conditions: Preemergence, 1000 g ai/ha; 0 to 100 scale, 0 no effect, 100 complete control
Summary of the method: as §1

[18] = 31 g ai/ha, scale 0 to 100 (0 no effect, 100 complete control)
[19] = 62 g ai/ha, scale 0 to 100 (0 no effect, 100 complete control)

| Compound | Foxtail, Giant plant response rating (foxtail, giant [1]) | Pigweed plant response rating (pigweed [2]) | Foxtail, Giant plant response rating (foxtail, giant [3]) | Plant response rating, Ducksalad (ducksalad; [18]) | Plant response rating, Ducksalad (ducksalad; 125 g ai/ha, scale 0 to 100) | Plant response rating, Ducksalad (ducksalad; 250 g ai/ha, scale 0 to 100) | Barnyardgrass plant response rating (barnyardgrass [4]) | Crabgrass, Large plant response rating (crabgrass, large [5]) | Wheat plant response rating (wheat [6]) | Corn plant response rating (corn [7]) | Morningglory plant response rating (morningglory [8]) | Wheat plant response rating (wheat [9]) | Corn plant response rating (corn [10]) | Barnyardgrass plant response rating (barnyardgrass [11]) | Crabgrass, Large plant response rating (crabgrass, large [12]) | Plant response rating, Barnyardgrass (barnyardgrass [13]; [18]) | Plant response rating, Barnyardgrass (barnyardgrass [13]; [19]) | Plant response rating, Barnyardgrass (barnyardgrass [13]; 125 g ai/ha, scale 0 to 100) | Plant response rating, Barnyardgrass (barnyardgrass [13]; 250 g ai/ha, scale 0 to 100) | Plant response rating, Rice (rice; [18]) | also measured |
| --- | --- | --- | --- | --- | --- | --- | --- | --- | --- | --- | --- | --- | --- | --- | --- | --- | --- | --- | --- | --- | --- |
| CCCc1cc(C(=O)NCC)nn1Cc1cccc(C(F)(F)F)c1 [Compound 29] | 80 | 100 | 90 | 0 | 85 | 85 | 50 | 70 | 10 | 0 | 90 | 40 | 50 | 80 | 100 | 0 | 0 | 0 | 20 | 0 | Plant response rating, Ducksalad (ducksalad; [19]): 0; Plant response rating, Rice (rice; [19]): 0; Plant response rating, Rice (rice; 125 g ai/ha, scale 0 to 100): 0; Plant response rating, Rice (rice; 250 g ai/ha, scale 0 to 100): 0; Velvetleaf plant response rating (velvetleaf [14]): 40; Pigweed plant response rating (pigweed [15]): 90; Velvetleaf plant response rating (velvetleaf [16]): 100; Plant response rating, Sedge, Umbrella (sedge, umbrella; [18]): 0; Plant response rating, Sedge, Umbrella (sedge, umbrella; [19]): 0; Plant response rating, Sedge, Umbrella (sedge, umbrella; 125 g ai/ha, scale 0 to 100): 75; Plant response rating, Sedge, Umbrella (sedge, umbrella; 250 g ai/ha, scale 0 to 100): 80; Morningglory plant response rating (morningglory [17]): 60 |
| CCCc1cc(C(=O)NC2CC2)nn1Cc1cccc(C(F)(F)F)c1 [Compound 30] | 100 | 100 | 100 | 60 | 80 | 100 | 90 | 90 | 10 | 20 | 100 | 40 | 40 | 70 | 100 | 0 | 0 | 0 | 20 | 0 | Plant response rating, Rice (rice; [19]): 0; Plant response rating, Rice (rice; 125 g ai/ha, scale 0 to 100): 0; Plant response rating, Rice (rice; 250 g ai/ha, scale 0 to 100): 0; Velvetleaf plant response rating (velvetleaf [14]): 30; Pigweed plant response rating (pigweed [15]): 30; Velvetleaf plant response rating (velvetleaf [16]): 100; Plant response rating, Sedge, Umbrella (sedge, umbrella; [18]): 0; Plant response rating, Sedge, Umbrella (sedge, umbrella; [19]): 0; Plant response rating, Sedge, Umbrella (sedge, umbrella; 125 g ai/ha, scale 0 to 100): 0; Plant response rating, Sedge, Umbrella (sedge, umbrella; 250 g ai/ha, scale 0 to 100): 80; Morningglory plant response rating (morningglory [17]): 60 |
